Measured values taken from patent US9000048B2, “Fluoropolymer-based emulsions for the intravenous delivery of fluorinated volatile anesthetics” (Wisconsin Alumni Research Foundation, priority 2006, dated 2015).
In brackets after ≈: the same amount, converted by molar mass.

Legend:
[1] = in vivo; cited from earlier work
[2] = Emulsion droplet sizing and stability by dynamic light scattering and visual phase separation; format: physicochemical
Protocol: The emulsions were sized by dynamic light scattering prior to use. For these measurements, the emulsions were mixed by inversion of the centrifuge tube to eliminate inhomogeneity due to either flocculation or sedimentation. The emulsions were then diluted by a factor of 300 by adding 10 μL of the emulsion to 2.990 mL of 0.9% NaCl. Sizing was done by dynamic light scattering (NICOMP 380 ZLS, Particle Sizing Systems, Santa Barbara, Calif.) with a 639 nm laser at a scattering angle of 90°. Each sample was run for 15 min and all numbers are reported as Gaussian volume weighted. The emulsions were only used if the average diameter was less than 350 nm. This cutoff was established to ensure consistent physical characteristics of the emulsion and to prevent acute toxicity that can develop with increased particle size.^15 Additionally, the emulsion was filtered through a 0.45 μm nylon syringe filter. The final nano-emulsions are milky-white.
As a typical example, sevoflurane (Abbott Labs, N. Chicago, Ill., 3.4 mL) and perfluorooctyl bromide (SynQuest Laboratories, Inc., Alachua, Fla., 1.7 mL) were added to an aqueous 0.9% NaCl solution (11.9 mL) of F13M5 (298 mg, 25 mg/mL), for a total volume of 17 mL. The two-phase mixture was homogenized with a low energy mixer (Power Gen 500, Fisher Scientific, Hampton, N.H.) for 1 min at 21000 rpm at room temperature. The crude emulsion was further homogenized under high pressure (5000 psi, 1 min) using a Microfluidizer (model 110 S, Microfluidics Corp., Newton, Mass.) with the temperature maintained at 20.0° C. with a cooling bath. The product emulsions were stored in 15 mL sterile centrifuge tubes (Corning Inc., Corning, N.Y.) at 4° C. until use. All emulsions were prepared in this same manner with the requisite percentages of each component as necessary. Intralipid emulsions were prepared by adding sevoflurane to Intralipid (20%, Fresenius Kabi, Uppsala, Sweden) and then homogenizing and microfluidizing as above. […]

[3] = Solubility of perfluorotridecane in sevoflurane; format: physicochemical; details: organic solvent or mixture, read-out: maximum solubility of perfluorotridecane in sevoflurane
Source text: If intercalation of perfluorotridecane between the perfluorocarbon blocks of F13M5 is the reason that phase separation occurred with sevoflurane, the same effect might be expected to happen when perfluorotridecane is used as an additive to stabilize emulsions of either FC-72 and perfluorooctyl bromide. […] The difference in emulsion stability is likely due to the different solubility of perfluorotridecane in the three fluorinated compounds. […] It is likely that the limited solubility of perfluorotridecane in sevoflurane led to its preferential adsorption at the interface, rather than at the center of the droplet. The greater solubility of perfluorotridecane in the other solvents allowed it to more easily reside in the center of the droplet and act truly as a secondary oil additive.

[4] = in vivo; cited from earlier work; remark: listed apart in the source
[5] = cited from earlier work
[6] = cited from earlier work; remark: listed apart in the source

FC(F)(F)C(F)(F)C(F)(F)C(F)(F)/C=C/C(F)(F)C(F)(F)C(F)(F)C(F)(F)F [bis-perfluorobutyl ethylene]
circulatory half-time / half life in the body [1]: 170 h

FC1(F)C(F)(F)C(F)(F)C2(F)C(F)(F)C(F)(F)C(F)(F)C(F)(F)C2(F)C1(F)F (centres unmarked) [perfluorodecalin]
ripening with different stabilizing additives [2]: ripen similarly

FC(F)(Cl)C(F)(F)C(F)(F)C(F)(F)C(F)(F)C(F)(F)C(F)(F)C(F)(F)Cl [perfluorodichlorooctane]
circulatory half-time / half life in the body [1]: 170 h

FC(F)(F)C(F)(F)C(F)(F)C(F)(F)C(F)(F)C(F)(F)C(F)(F)C(F)(F)Br [perfluorooctyl bromide]
ripening with different stabilizing additives [2]: ripen similarly
droplet size / Ostwald ripening with perfluorotridecane as the additive ([2]; 20% v/v primary oil, perfluorotridecane additive, 1.5% w/v F13M5): the size stabilized and Ostwald ripening appeared to be stopped
circulatory half-time / half life in the body [1]: four

FC(F)(F)C(F)(F)C(F)(F)C(F)(F)C(F)(F)C(F)(F)C(F)(F)C(F)(F)C(F)(F)C(F)(F)C(F)(F)C(F)(F)C(F)(F)F [perfluorotridecane]
solubility [3]: 78 mg/mL (≈ 113 mM)

CC(C)c1cccc(C(C)C)c1O [propofol]
therapeutic index, previously published values [4]: 3.1

FCOC(C(F)(F)F)C(F)(F)F [sevoflurane]
water solubility [5]: 6 mM (≈ 1200 µg/mL)
maximum solubility of sevoflurane in 30% Intralipid ([6]; 30% Intralipid, gas equilibration): 3.46 % v/v
maximum amount of sevoflurane that can be stably emulsified in Intralipid ([6]; Intralipid): 3.5 % v/v
maximum of sevoflurane emulsified in Intralipid ([6]; in volume, non-fluorinated lipids (Intralipid)): 3.6%

CCCC(C)C1(CC)C(=O)NC(=S)NC1=O (centres unmarked) [thiopental]
therapeutic index, previously published values [4]: 2.2

perfluoro(methyldecalin)
circulatory half-time / half life in the body [1]: 264 h
